Earlier results on 1 compound are cited in patent publication US9549925B2, “Lipid-based compositions of antiinfectives for treating pulmonary infections and methods of use thereof” (Insmed Incorporated, priority 2005, dated 2017).

The conditions of this data set: free tobramycin, nebulized, nominal dose 300 mg; absorption into the systemic circulation.

Regarding `NC[C@H]1O[C@H](O[C@H]2[C@H](O)[C@@H](O[C@H]3O[C@H](CO)[C@@H](O)[C@H](N)[C@H]3O)[C@H](N)C[C@@H]2N)[C@H](N)C[C@@H]1O` [tobramycin, Tobramycin], the “absorption half-life from the lung” value is “about 1.5 hr”.
